Data as given in PMC9272661 (Antiviral Research, 2022).

Columns and labels:
SARS-CoV-2 3CLpro [1] = biological target: T1, SARS-CoV-2 3CLpro (Severe acute respiratory syndrome coronavirus 2, UniProt P0DTD1); experiment: Enzyme kinetics, Lineweaver-Burk plots; format: biochemical; details: 200 nM 3CLpro, inhibitor 5 μM or 10 μM
SARS-CoV-2 3CLpro [2] = biological target: T1, SARS-CoV-2 3CLpro; experiment: Inhibition of cleavage of TriPro substrate protein; format: biochemical; details: 0.8 μM 3CLpro, 1 h preincubation, SDS-PAGE
SARS-CoV-2 3CLpro [3] = biological target: T1, SARS-CoV-2 3CLpro; experiment: Surface plasmon resonance binding to immobilized 3CLpro; details: 0.164-100 μM, 25 °C, n = 3
SARS-CoV-2 3CLpro [4] = biological target: T1, SARS-CoV-2 3CLpro; experiment: FRET-based enzymatic assay of 3CLpro; format: biochemical; details: at 50 μM concentration

| SMILES | Inhibition Type (SARS-CoV-2 3CLpro [1]) | Inhibition of cleavage of TriPro substrate protein (SARS-CoV-2 3CLpro [2]) | KD (SPR, steady-state affinity model) (SARS-CoV-2 3CLpro [3]) | Inhibitory activity against SARS-CoV-2 3CLpro (SARS-CoV-2 3CLpro [4]) |
| --- | --- | --- | --- | --- |
| Cl.NCCOc1ccc(Cl)cc1C(=O)NCC(=O)Nc1ccc([N+](=O)[O-])cc1Cl [JMX0286, 2-(2-Aminoethoxy)-5-chloro-N-(2-((2-chloro-4-nitrophenyl)amino)-2-oxoethyl)benzamide hydrochloride] | Non-competitive | inhibited the cleavage of the TriPro substrate protein in a dose dependent manner |  |  |
| CC(C)(C)OC(=O)NCCOc1ccc(Cl)cc1C(=O)NCC(=O)Nc1ccc([N+](=O)[O-])cc1Cl [JMX0301, Tert-Butyl (2-(4-chloro-2-((2-((2-chloro-4-nitrophenyl)amino)-2-oxoethyl)carbamoyl)phenoxy)ethyl)carbamate] | Non-competitive | inhibited the cleavage of the TriPro substrate protein in a dose dependent manner | did not show binding |  |
| O=C(Nc1ccc([N+](=O)[O-])cc1Cl)c1cc(Cl)ccc1O [niclosamide] |  |  |  | does not inhibit |
